# From ChEMBL document CHEMBL1135660, “Design, synthesis, and tripeptidyl peptidase II inhibitory activity of a novel series of (S)-2,3-dihydro-2-(4-alkyl-1H-imidazol-2-yl)-1H-indoles” (J Med Chem, 2002)
# Target: Tripeptidyl-peptidase 2 (Rattus norvegicus, UniProt Q64560)
# Assay: Inhibitory activity against tripeptidyl peptidase II purified from rat liver
# Tripeptidyl-peptidase 2, sequence (Q64560 whole entry): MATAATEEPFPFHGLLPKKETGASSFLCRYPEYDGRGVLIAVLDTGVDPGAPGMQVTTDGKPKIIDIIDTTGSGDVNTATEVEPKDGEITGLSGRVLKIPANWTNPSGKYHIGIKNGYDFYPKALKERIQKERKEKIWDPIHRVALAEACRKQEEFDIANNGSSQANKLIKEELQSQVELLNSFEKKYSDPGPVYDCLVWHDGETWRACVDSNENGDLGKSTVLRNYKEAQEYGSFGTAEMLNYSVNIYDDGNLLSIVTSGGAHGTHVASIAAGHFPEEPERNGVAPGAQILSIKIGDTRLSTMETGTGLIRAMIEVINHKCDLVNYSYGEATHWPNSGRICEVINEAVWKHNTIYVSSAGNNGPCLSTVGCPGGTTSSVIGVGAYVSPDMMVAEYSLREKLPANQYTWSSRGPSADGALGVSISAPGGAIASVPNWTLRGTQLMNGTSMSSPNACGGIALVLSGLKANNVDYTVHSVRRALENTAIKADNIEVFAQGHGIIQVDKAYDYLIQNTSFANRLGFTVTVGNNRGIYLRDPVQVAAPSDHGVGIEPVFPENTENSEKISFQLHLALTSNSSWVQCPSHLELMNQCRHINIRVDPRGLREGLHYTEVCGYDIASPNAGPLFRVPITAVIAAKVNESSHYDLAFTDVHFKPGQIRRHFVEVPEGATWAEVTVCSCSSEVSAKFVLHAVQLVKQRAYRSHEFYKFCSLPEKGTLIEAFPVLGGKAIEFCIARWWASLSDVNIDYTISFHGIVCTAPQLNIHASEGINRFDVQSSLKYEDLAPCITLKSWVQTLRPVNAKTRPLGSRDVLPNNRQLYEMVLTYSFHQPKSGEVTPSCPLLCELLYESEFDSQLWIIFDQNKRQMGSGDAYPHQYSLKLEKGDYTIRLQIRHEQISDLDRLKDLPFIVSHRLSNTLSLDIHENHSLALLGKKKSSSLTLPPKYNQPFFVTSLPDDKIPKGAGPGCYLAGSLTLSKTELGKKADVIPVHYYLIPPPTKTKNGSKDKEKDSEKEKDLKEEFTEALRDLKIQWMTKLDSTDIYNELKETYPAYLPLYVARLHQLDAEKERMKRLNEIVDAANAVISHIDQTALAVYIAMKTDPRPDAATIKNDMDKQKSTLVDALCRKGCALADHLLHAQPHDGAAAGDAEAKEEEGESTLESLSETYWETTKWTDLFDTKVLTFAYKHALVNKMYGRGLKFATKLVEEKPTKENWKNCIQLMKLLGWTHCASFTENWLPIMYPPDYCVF
row,IC50 [µM],SMILES
1,> 10,CCc1c[nH]c([C@@H]2Cc3ccccc3N2C(=O)[C@H](C)N)n1
2,> 10,CC[C@@H]1NC(=O)[C@@H]2Cc3ccccc3N2C1=O
3,0.023,CC[C@H](N)C(=O)N1c2ccccc2C[C@H]1c1ncc(C)[nH]1
4,> 10,CCCc1cnc([C@@H]2Cc3ccccc3N2C(C)=O)[nH]1
